In US7396850B2, “Pyrazole derivative as PPAR modulator” (Eli Lilly and Company, priority 2003, dated 2008):

Legend:
PPARα = target: T1, PPARα (Homo sapiens, UniProt Q07869); assay: PPAR cotransfection (transactivation) assay in CV-1 cells, GAL4 chimeric system; format: cell-based
T1 sequence (Q07869 201-468 limits assumed): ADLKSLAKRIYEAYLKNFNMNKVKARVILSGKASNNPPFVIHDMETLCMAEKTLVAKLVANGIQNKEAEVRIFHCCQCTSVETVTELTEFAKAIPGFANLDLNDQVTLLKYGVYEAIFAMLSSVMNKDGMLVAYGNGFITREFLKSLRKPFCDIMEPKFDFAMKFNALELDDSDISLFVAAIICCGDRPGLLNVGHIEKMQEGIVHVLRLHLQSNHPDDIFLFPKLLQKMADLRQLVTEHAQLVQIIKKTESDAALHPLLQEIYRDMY
Procedure: (§1) DNA-dependent binding is carried out using SPA technology with PPAR receptors. Tritium-labeled PPARα agonists are used as radioligands for generating displacement curves and IC50 values with compounds of the invention. Cotransfection assays are carried out in CV-1 cells. The reporter plasmid contained an acylCoA oxidase (AOX) PPRE and TK promoter upstream of the luciferase reporter cDNA. Appropriate PPARs are constitutively expressed using plasmids containing the CMV promoter. For PPARα, interference by endogenous PPARγ in CV-1 cells is an issue. In order to eliminate such interference, a GAL4 chimeric system is used in which the DNA binding domain of the transfected PPAR is replaced by that of GAL4, and the GAL4 response element is utilized in place of the AOX PPRE. Cotransfection efficacy is determined relative to PPAR agonist reference molecules. Efficacies are determined by computer fit to a concentration-response curve, or in some cases at a single high concentration of agonist (10 μM).
(§2) These studies are carried out to evaluate the ability of compounds of the invention to bind to and/or activate various nuclear transcription factors, particularly huPPARδ (“hu” indicates “human”). These studies provide in vitro data concerning efficacy and selectivity of compounds of the invention.

PPARγ = target: T2, PPARγ (Homo sapiens, UniProt P37231); assay: PPAR cotransfection (transactivation) assay in CV-1 cells; format: cell-based
T2 construct: expressed in transfected cells; host or cells: CV-1 cells
T2 sequence (P37231 1-505): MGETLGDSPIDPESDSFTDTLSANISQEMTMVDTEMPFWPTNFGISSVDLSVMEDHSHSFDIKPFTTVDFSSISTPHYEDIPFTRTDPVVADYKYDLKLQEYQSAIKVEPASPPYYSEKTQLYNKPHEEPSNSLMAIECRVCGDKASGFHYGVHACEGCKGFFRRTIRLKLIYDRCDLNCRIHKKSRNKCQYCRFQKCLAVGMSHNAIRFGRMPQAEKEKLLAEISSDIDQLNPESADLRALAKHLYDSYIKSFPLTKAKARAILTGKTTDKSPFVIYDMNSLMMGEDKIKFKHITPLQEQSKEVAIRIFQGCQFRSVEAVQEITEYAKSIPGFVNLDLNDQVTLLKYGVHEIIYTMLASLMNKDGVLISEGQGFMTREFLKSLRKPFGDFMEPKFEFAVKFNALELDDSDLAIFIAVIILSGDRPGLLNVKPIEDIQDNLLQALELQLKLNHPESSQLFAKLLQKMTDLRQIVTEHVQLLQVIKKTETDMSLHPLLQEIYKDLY
Procedure: as §1, §2

PPARδ = target: T3, PPARδ (Homo sapiens, UniProt Q03181); assay: as above; format: cell-based
T3 construct: expressed in transfected cells; host or cells: CV-1 cells
T3 sequence (Q03181 1-441): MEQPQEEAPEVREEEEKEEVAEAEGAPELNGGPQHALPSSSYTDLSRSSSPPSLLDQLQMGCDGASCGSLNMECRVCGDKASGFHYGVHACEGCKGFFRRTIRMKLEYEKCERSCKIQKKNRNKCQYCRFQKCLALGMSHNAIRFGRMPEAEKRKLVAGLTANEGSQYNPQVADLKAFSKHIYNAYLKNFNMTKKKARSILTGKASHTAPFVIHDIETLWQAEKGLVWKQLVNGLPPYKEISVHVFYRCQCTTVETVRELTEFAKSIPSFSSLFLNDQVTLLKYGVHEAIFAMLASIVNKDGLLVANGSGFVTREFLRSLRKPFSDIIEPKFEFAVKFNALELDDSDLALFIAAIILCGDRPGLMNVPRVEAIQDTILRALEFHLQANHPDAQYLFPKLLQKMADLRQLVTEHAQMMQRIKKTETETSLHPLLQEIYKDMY
Procedure: as §1, §2

[1] = system: obese, non-diabetic rhesus monkeys; assay: Dyslipidemic rhesus monkey model, oral dose-escalation study for 28 days; format: in vivo
Procedure: The compound of Formula 1 was examined in a dyslipidemic rhesus monkey model. […] HDL cholesterol increased by more than 40% in the 3.0 mg/kg b.i.d. dose group. LDL cholesterol decreased by approximately 25% in the 9.0 mg/kg b.i.d dose group, and a dose-related effect on triglycerides yielded a maximum 53% reduction in the 9.0 mg/k.g b.i.d dose group.

Cc1cc(SCc2cn(-c3ccc(C(F)(F)F)cc3)nc2C)ccc1OCC(=O)O [Formula 1, {2-Methyl-4-[3-methyl-1-(4-trifluoromethyl-phenyl)-1H-pyrazol-4-ylmethylsulfanyl]-phenoxy}-acetic acid]
EC50 (PPARα): 1800 nM | EC50 (PPARγ): 2600 nM | EC50 (PPARδ): 20 nM | C-reactive protein levels ([1]; compared to pretreatment levels): reduced compared to pretreatment levels | HDL-c change ([1]; oral dose-escalation, 28 days, each dose): elevation of HDL-c with each dose | HDL cholesterol increase ([1]; oral, 3.0 mg/kg b.i.d. dose group): more than 40% | LDL cholesterol decrease ([1]; oral, 9.0 mg/kg b.i.d. dose group): approximately 25% | triglycerides maximum reduction ([1]; oral, 9.0 mg/kg b.i.d. dose group, dose-related effect): 53%
